Target: T1, human Kv4.3 (Homo sapiens, UniProt Q9UK17)
T1 construct: expressed in transfected cells; host or cells: transgenic C. elegans strain UG1755 (N2 injected with plasmid pGV8, integrated array)
T1 sequence (Q9UK17 1-655): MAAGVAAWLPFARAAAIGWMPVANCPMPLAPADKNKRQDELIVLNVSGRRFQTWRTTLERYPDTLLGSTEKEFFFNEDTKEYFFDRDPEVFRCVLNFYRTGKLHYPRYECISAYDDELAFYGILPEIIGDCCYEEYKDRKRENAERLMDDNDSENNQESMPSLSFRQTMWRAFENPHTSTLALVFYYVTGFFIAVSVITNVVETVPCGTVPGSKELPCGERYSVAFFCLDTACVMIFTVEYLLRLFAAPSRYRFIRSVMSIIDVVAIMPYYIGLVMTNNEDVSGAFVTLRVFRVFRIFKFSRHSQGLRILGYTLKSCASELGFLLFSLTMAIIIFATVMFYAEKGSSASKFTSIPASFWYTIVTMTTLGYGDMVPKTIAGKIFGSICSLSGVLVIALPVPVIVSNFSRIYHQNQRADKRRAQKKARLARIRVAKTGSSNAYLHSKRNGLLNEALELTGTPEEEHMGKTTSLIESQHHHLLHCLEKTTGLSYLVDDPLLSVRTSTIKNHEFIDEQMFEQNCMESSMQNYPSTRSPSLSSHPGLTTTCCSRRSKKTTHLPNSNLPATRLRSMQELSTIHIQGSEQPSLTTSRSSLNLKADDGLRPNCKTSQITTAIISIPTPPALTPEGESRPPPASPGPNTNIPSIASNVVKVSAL
Test: Electropharyngeogram (EPG) recording on dissected pharynxes of transgenic C. elegans strain UG1755
Procedure: The method to describe the construction of a transgenic C. elegans strain expressing human Kv4.3 has been described in WO 03/097682. Briefly, the actual used strain UG1755 has been generated by microinjection into the gonad of a wild-type strain N2 with a mix of 5 ng/μl plasmid pGV8 (human Kv4.3), 20 ng/μl pDW2821 (GFP-marker) and 40 ng/ul genomic C. elegans DNA. Transgenic animals have been isolated and submitted to integration of the extra-chromosomal array into the genome of C. elegans. A line with 50% transmission of the functional expressed human Kv4.3 has been mutagenized with gamma irradiation using a Cobalt source. About 12000 F2 animals have been singled out and their progeny has been screened for the 100% transmission of the GFP marker. Lines with 100% transmission of GFP have been considered as potentially integrated. These lines have been further tested and out-crossed with N2 strain two-times. All lines obtained have been tested for viability, GFP and human Kv4.3 expression. At the end of a selection process, UG1755 was identified as most suitable C. elegans strain amenable to high throughput screening (HTS). […] Briefly, dissected pharynxes of UG1755 C. elegans animals have been prepared and Electropharyngeograms (EPGs) have been recorded using an Axopatch-1D amplifier (Axon instruments). […] The number of ultra short EPGs (10-20 ms) and normal EPGs (100-200 ms) has been analyzed and given as ratio in percentage. […] In addition, standard qRT-PCR confirmed the presence of the human Kv4.3 transgene in UG1755 as well as human Kv4.3 protein has been detected with the human Kv4.3 antibody P 0358 in the pharynx of UG1755 animals.
Introducing the human Kv4.3 channel into the C. elegans pharynx influences the C. elegans action potential in a characteristic fashion. […] The pumping end-point can be technically translated into a high-throughput read-out by the use of a pro-fluorescent dye. […] After a defined incubation period, the change of fluorescence intensity in the intestine can be measured with a plate reader.

Row | After Application of Compound Ratio Ultra short to Normal EPGs in % (100 μM Flecainide, strain UG1755, n = 15, before application 83 ± 13) [%] | Compound | ultra short action potentials of the human Kv4.3 transgenic C. elegans pharynx
1 | – | Nc1ccncc1 [4-aminopyridine] | restored to normal action potentials
2 | 53 ± 24 | O=C(NCC1CCCCN1)c1cc(OCC(F)(F)F)ccc1OCC(F)(F)F (stereo not drawn) [Flecainide] | restored to normal action potentials
